Earlier results on 2 molecules are cited in patent publication US11817195B2, “Methods for lowering blood sugar with a gliflozin sodium-glucose cotransport 2 inhibitor pharmaceutical composition” (AstraZeneca UK Limited, priority 2018, dated 2023).

Structures are written as SMILES.

The conditions of data set [1]: at least 14 double-blind, placebo-controlled, randomized studies.

On to `Cc1ccc([C@@H]2O[C@H](CO)[C@@H](O)[C@H](O)[C@H]2O)cc1Cc1ccc(-c2ccc(F)cc2)s1` [canagliflozin, (2S,3R,4R,5S,6R)-2-[3-[[5-(4-fluorophenyl)thiophen-2-yl]methyl]-4-methylphenyl]-6-(hydroxymethyl)oxane-3,4,5-triol], for which, under “patients with moderate renal impairment, Mikhail, Curr. Drug Safety 9:127-132 (2014)”, the incidence of hyperkalemia result is “higher incidence of hyperkalemia”.

`CCOc1ccc(Cc2cc([C@@H]3O[C@H](CO)[C@@H](O)[C@H](O)[C@H]3O)ccc2Cl)cc1` [dapagliflozin, (2S,3R,4R,5S,6R)-2-[4-chloro-3-[(4-ethoxyphenyl)methyl]phenyl]-6-(hydroxymethyl)oxane-3,4,5-triol]: the risk of hyperkalemia result (administration of the drug) is “not correlated with an increased risk of hyperkalemia”. Further, the “efficacy to lower blood sugar” value in data set [1] is reported as “demonstrated”.
